# Experimental data reported in ChEMBL document CHEMBL3885861, “Open TG-GATES”.
# Species on record: Rattus norvegicus
# Experiment: Open TG-GATES - Regimen: Single
# Type: toxicity, organism-based, Sprague-Dawley
# Set-up: regimen Single, gender Male, age 6 weeks
# Settings: in vivo, po, 0 mg/kg, route gavage, dose level Control; for APTT / Bas / Eos / Fbg / Hb / Ht / Lym / MCH / MCHC / MCV / Mono / Neu / PT / Plat / RBC / Ret / WBC: tissue Blood; for KIDNEY_L / KIDNEY_R / KIDNEY_TOTAL: tissue Kidney; for LIVER: tissue Liver; for ALP / ALT / AST / CRE / DBIL / GLC / IP / K / LDH / Na / PL / RALB / TBIL / TC / TP / gamma-GTP: tissue Plasma
structure (smiles),measurement,setting,value
Clc1ccccc1CN1CCc2sccc2C1 [TICLOPIDINE],TERMINAL_BW,3 h,208.4 g
same,APTT,3 h,18.6 s
same,Bas,3 h,0%
same,Eos,3 h,1%
same,Fbg,3 h,221.2 mg/dL
same,Hb,3 h,13.2 g/dL
same,Ht,3 h,37.6%
same,Lym,3 h,73.2%
same,MCH,3 h,21.1 pg
same,MCHC,3 h,35%
same,MCV,3 h,60.3 fL
same,Mono,3 h,3%
same,Neu,3 h,21.8%
same,PT,3 h,11.9 s
same,Plat,3 h,123.5 x10_4/uL
same,RBC,3 h,623.4 x10_4/ul
same,Ret,3 h,7.9%
same,WBC,3 h,82.6 x10_2/uL
same,KIDNEY_L,3 h,0.9 g
same,KIDNEY_R,3 h,0.9 g
same,KIDNEY_TOTAL,3 h,1.9 g
same,LIVER,3 h,9.5 g
same,ALP,3 h,806 IU/L
same,ALT,3 h,37.4 IU/L
same,AST,3 h,69.2 IU/L
same,CRE,3 h,0.4 mg/dL
same,DBIL,3 h,0.07 mg/dL
same,GLC,3 h,204.6 mg/dL
same,IP,3 h,9.8 mg/dL
same,K,3 h,3.9 meq/L
same,LDH,3 h,129.2 IU/L
same,Na,3 h,141.2 meq/L
same,PL,3 h,142.4 mg/dL
same,RALB,3 h,3.3 g/dL
same,TBIL,3 h,0.1 mg/dL
same,TC,3 h,79.2 mg/dL
same,TP,3 h,5.4 g/dL
same,gamma-GTP,3 h,1.2 IU/L
same,TERMINAL_BW,6 h,208.2 g
same,APTT,6 h,18.7 s
same,Bas,6 h,0.2%
same,Eos,6 h,1%
same,Fbg,6 h,214.6 mg/dL
same,Hb,6 h,13.4 g/dL
same,Ht,6 h,38.1%
same,Lym,6 h,73%
same,MCH,6 h,21.3 pg
same,MCHC,6 h,35.2%
same,MCV,6 h,60.3 fL
same,Mono,6 h,3%
same,Neu,6 h,21.4%
same,PT,6 h,12 s
same,Plat,6 h,123.6 x10_4/uL
same,RBC,6 h,632.8 x10_4/ul
same,Ret,6 h,7.7%
same,WBC,6 h,93.2 x10_2/uL
same,KIDNEY_L,6 h,1 g
same,KIDNEY_R,6 h,0.9 g
same,KIDNEY_TOTAL,6 h,1.9 g
same,LIVER,6 h,9.1 g
same,ALP,6 h,821 IU/L
same,ALT,6 h,32.4 IU/L
same,AST,6 h,68 IU/L
same,CRE,6 h,0.4 mg/dL
same,DBIL,6 h,0.074 mg/dL
same,GLC,6 h,183.2 mg/dL
same,IP,6 h,9.3 mg/dL
same,K,6 h,3.9 meq/L
same,LDH,6 h,170.8 IU/L
same,Na,6 h,141.4 meq/L
same,PL,6 h,126.8 mg/dL
same,RALB,6 h,3.2 g/dL
same,TBIL,6 h,0.1 mg/dL
same,TC,6 h,70.8 mg/dL
same,TP,6 h,5.3 g/dL
same,gamma-GTP,6 h,1 IU/L
same,TERMINAL_BW,9 h,205.8 g
same,APTT,9 h,17.9 s
same,Bas,9 h,0%
same,Eos,9 h,1%
same,Fbg,9 h,222 mg/dL
same,Hb,9 h,13.3 g/dL
same,Ht,9 h,37.5%
same,Lym,9 h,78.2%
same,MCH,9 h,21.5 pg
same,MCHC,9 h,35.6%
same,MCV,9 h,60.5 fL
same,Mono,9 h,2%
same,Neu,9 h,17.8%
same,PT,9 h,12.3 s
same,Plat,9 h,131.6 x10_4/uL
same,RBC,9 h,620 x10_4/ul
same,Ret,9 h,7.6%
same,WBC,9 h,87.2 x10_2/uL
same,KIDNEY_L,9 h,0.9 g
same,KIDNEY_R,9 h,0.9 g
same,KIDNEY_TOTAL,9 h,1.8 g
same,LIVER,9 h,7.9 g
same,ALP,9 h,871.4 IU/L
same,ALT,9 h,33.4 IU/L
same,AST,9 h,65.6 IU/L
same,CRE,9 h,0.4 mg/dL
same,DBIL,9 h,0.072 mg/dL
same,GLC,9 h,193.8 mg/dL
same,IP,9 h,10 mg/dL
same,K,9 h,3.7 meq/L
same,LDH,9 h,128.4 IU/L
same,Na,9 h,141.8 meq/L
same,PL,9 h,130.8 mg/dL
same,RALB,9 h,3.3 g/dL
same,TBIL,9 h,0.1 mg/dL
same,TC,9 h,74 mg/dL
same,TP,9 h,5.4 g/dL
same,gamma-GTP,9 h,1 IU/L
same,TERMINAL_BW,24 h,221.4 g
same,APTT,24 h,20.8 s
same,Bas,24 h,0.8%
same,Eos,24 h,0.8%
same,Fbg,24 h,228.6 mg/dL
same,Hb,24 h,13.7 g/dL
same,Ht,24 h,38.7%
same,Lym,24 h,75%
same,MCH,24 h,21.5 pg
same,MCHC,24 h,35.4%
same,MCV,24 h,60.7 fL
same,Mono,24 h,3.6%
same,Neu,24 h,19.2%
same,PT,24 h,11.9 s
same,Plat,24 h,130.5 x10_4/uL
same,RBC,24 h,638 x10_4/ul
same,Ret,24 h,6.5%
same,WBC,24 h,110.6 x10_2/uL
same,KIDNEY_L,24 h,1 g
same,KIDNEY_R,24 h,1 g
same,KIDNEY_TOTAL,24 h,1.9 g
same,LIVER,24 h,10.1 g
same,ALP,24 h,880.2 IU/L
same,ALT,24 h,43.8 IU/L
same,AST,24 h,73.6 IU/L
same,CRE,24 h,0.4 mg/dL
same,DBIL,24 h,0.074 mg/dL
same,GLC,24 h,198.2 mg/dL
same,IP,24 h,8.5 mg/dL
same,K,24 h,3.7 meq/L
same,LDH,24 h,142.2 IU/L
same,Na,24 h,141.8 meq/L
same,PL,24 h,134.2 mg/dL
same,RALB,24 h,3.4 g/dL
same,TBIL,24 h,0.1 mg/dL
same,TC,24 h,70 mg/dL
same,TP,24 h,5.5 g/dL
same,gamma-GTP,24 h,1 IU/L
